{"source": "patent US20230212517A1", "about": "“METHODS FOR GENERATING HEMATOPOIETIC STEM CELLS” (The Brigham and Women's Hospital, Inc., priority 2018, published 2023)", "assay_type_in_all_cases": "in vivo, mouse", "key": {"E11.5 AGM-derived HSCs": {"test_system": "E11.5 AGM-derived HSCs", "experiment": "Serial transplantation of treated E11.5 AGM-derived HSCs into lethally irradiated mice", "conditions": "for multi-lineage reconstitution (myeloid, T-cells, B-cells) in primary transplant / peripheral blood chimerism / engraftment in primary transplant: primary recipients; for multi-lineage reconstitution (myeloid, T-cells, B-cells) in primary transplant: week 16; for peripheral blood chimerism / engraftment in primary transplant: weeks 8-16, three embryo equivalent treated AGM donor cells", "protocol": "(§1) Pulsating blood vessels like conditions were stimulated in vitro using FLEXCELL FX-4000 cell stretching bioreactor machine. To analyze roles of pharmacological targets in regulating the endothelial-to-HSC transition, mouse embryo-derived AGM or whole mouse embryo were exposed ex vivo with biomechanical stretching, chemicals, or drugs. Next, hematopoietic colony formation assays were performed by incubating mouse AGM-derived cells in StemCell M3434 media for seven days. Serial transplantation of AGM-derived HSCs in lethally irradiated SJL mice were performed. The stem cell frequency upon biomechanical stretching was analyzed using a limiting dilution assay. To characterize properties of AGM-HSC-derived blood cells in primary transplants, percentage chimerism and reconstitution was measured using FACS, globin transcripts were analyzed using quantitative reverse transcriptase-PCR, myeloperoxidase amount was measured using PICOKINE ELISA kit, TCR-β rearrangement was analyzed using PCR for TCR-β locus, pre-immune IG detection was analyzed using Thermo-Fisher Mouse Ig Isotyping kit, and delayed-type hypersensitivity was analyzed by injecting sheep RBC (Rockland Immunochemicals) in the footpad of pre-sensitized mice.\nFor primary transplantation, three-embryo equivalents of untreated or treated (cyclic strain or 25 μM Yoda1) AGMs plus splenic helper cells (˜500,000 per mouse) were injected into lethally irradiated (split dose […]) Cd45.1 (SJL) mice by retro-orbital injection. For secondary and tertiary transplants, the bone marrow was isolated (legs, arm, pelvic bone, spine, sternum) from the transplanted mice. The bone marrow was loaded on a FICOLL gradient (HISTOPAQUE-1083 solution, Sigma-Aldrich), and the cells from the buffy coat incubated with biotin-conjugated lineage antibodies and streptavidin microbeads (Miltenyi Biotec). Next, the lineage negative (Lin) cells were separated with MACS LS Columns (Miltenyi Biotec), and the donor Cd45.2 Lin^−Sca1^+-Kit^+ (LSK) cells sorted with a MoFlo Beckman Coulter sorter. Subsequently, the sorted Cd45.2 LSK cells were mixed with Cd45.1 splenic helper cells (˜500,000 per mouse) and transplanted into Cd45.1 irradiated (split dose […]) SJL mice by retro-orbital injection.\nAGM cells from explants and ex vivo were stained with Sca1-Pacific-Blue (E13-161.7, Biolegend) and Flk1-APC-Cy7 (Avas 12α1, BD). Blood from transplanted mice was stained with the following antibody cocktail: Cd45.2-Pacific-Blue (104, Biolegend), Cd45.1-FITC (A20, Biolegend), Cd3-PE (145-2C11, Biolegend), Cd8-PE (53-6.7, Biolegend), Mac1-APC (M1/70, Biolegend), Gr1-APC (108412, Biolegend), Cd19-APC-CY7 (6D5, Biolegend), B220-APC-CY7 (RA3-6B2, Biolegend).\nCells from the bone marrow, spleen, thymus, and lymph node from mice transplanted with E11.5 AGM cells were stained with the following antibody panels: Bone marrow LT-HSC: Cd45.2-FITC (104, Biolegend), Ter119-Biotin (TER-119 BD), Gr1-Biotin (RB6-8C5, BD), Cd5-Biotin (53-7.3, BD), Cd8a-Biotin (53-6.7, BD), B220-Biotin (RA3-6B2, BD), Streptavidin-Pacific Blue (eBioscience), Sca1-PE-CY7 (D7, eBioscience), cKit-APC (2B8, eBioscience), Cd48-APC-CY7 (HM48-1, BD), Cd150-PE-CY5 (TC15-12F12.2, Biolegend). Erythroid development RI-RV in bone marrow: Cd45.2-Pacific-Blue (104, Biolegend), Cd45.1-FITC (A20, Biolegend), Ter119-APC (TER-119, Biolegend), Cd71-PE (R17217, eBioscience). Bone marrow granulocytes: Cd45.2-Pacific-Blue (104, Biolegend), Cd45.1-FITC (A20, Biolegend), Gr1-PE, (RB6-8C5, BD); Mac1-APC (M1/70, Biolegend). Spleen, thymus and lymph nodes T Cells: Cd45.2-Pacific-Blue (104, Biolegend), Cd45.1-FITC (A20, Biolegend), Cd8-PE (53-6.7, Biolegend), Cd4-APC (RM4-5, eBioscience). Spleen, thymus and lymph node myeloid and B cells: Cd45.2-Pacific-Blue (104, Biolegend), Cd45.1-FITC (A20, Biolegend), Cd19-APC-CY7 (6D5, Biolegend), Mac1-APC (M1/70, Biolegend). We performed all FACS analyses on a BD Fortessa cytometer. […]"}, "[1]": {"test_system": "bone marrow-derived Cd71+ Ter119+ sorted (donor) erythroid cells", "experiment": "qRT-PCR of globin transcripts in donor erythroid cells of primary transplant", "conditions": "primary transplant of treated E11.5 AGM", "protocol": "as §1\nFACS was used to sort erythroid precursors (Cd45.2^+, Ter119^+, Cd71^+) from the unlysed bone marrow isolated from AGM-transplanted mice. […]"}, "[2]": {"test_system": "spleen-sorted Cd3+ T cells (donor)", "experiment": "PCR assay for TCR-β rearrangement in donor T cells of primary transplant", "conditions": "primary transplant of treated E11.5 AGM; Mac1+ myeloid cells negative control", "protocol": "as §1\nT cells (Cd45.2^+, Cd3^+) and myeloid cells (Cd45.2^+, Mac1^+) were FACS sorted from the splenocytes of 16 week-primary transplanted mice. […]"}}}
{"smiles": "Clc1cccc(Cl)c1CSc1nnc(-c2cnccn2)s1", "note": "[Yoda1, 2-[5-[[(2,6-Dichlorophenyl)methyl]thio]-1,3,4-thiadiazol-2-yl]-pyrazine]", "values": [{"measurement": "multi-lineage reconstitution (myeloid, T-cells, B-cells) in primary transplant", "setting": "E11.5 AGM-derived HSCs", "value": "stimulates the formation of HSCs that reconstitute to the blood"}, {"measurement": "multi-lineage reconstitution (myeloid, T-cells, B-cells) in primary transplant", "setting": "E11.5 AGM-derived HSCs; listed as Piezo1 activator", "value": "normal multi-lineage reconstitution"}, {"measurement": "peripheral blood chimerism / engraftment in primary transplant", "setting": "E11.5 AGM-derived HSCs", "value": "stimulates the formation of HSCs"}, {"measurement": "peripheral blood chimerism / engraftment in primary transplant", "setting": "E11.5 AGM-derived HSCs; listed as Piezo1 activator", "value": "higher engraftment"}, {"measurement": "multi-lineage reconstitution in secondary transplant", "setting": "E11.5 AGM-derived HSCs; secondary recipients, week 12", "value": "produces HSCs that can serially reconstitute to the blood"}, {"measurement": "peripheral blood chimerism in secondary transplant", "setting": "E11.5 AGM-derived HSCs; secondary recipients, weeks 8-12, 2000 sorted Lin-Sca1+c-Kit+ HSPCs", "value": "produces HSCs that have serial engraftment and self-renewal capacities"}, {"measurement": "amount of Lin-Sca1+c-Kit+Cd48-Cd150+ HSCs in bone marrow of primary recipients", "setting": "E11.5 AGM-derived HSCs; vs. control AGM", "value": "two- to three-times higher amount"}, {"measurement": "hemoglobin type (β-major adult, εγ and β-H1 embryonic) expressed in donor erythroid cells", "setting": "[1]", "value": "reconstitutes to red cells containing adult hemoglobin"}, {"measurement": "T-cell receptor β (TCRβ) locus rearrangement in donor T-cells", "setting": "[2]", "value": "display T-cell receptor β (TCR β) rearrangement"}]}
